{"source": "paper PMC11227560", "about": "“Tyrosol blocks E. coli anaerobic biofilm formation via YbfA and FNR to increase antibiotic susceptibility” (Nature Communications, 2024)", "target": "T1, YbfA (Escherichia coli, UniProt P0AAU2)", "T1 construct": "recombinant 6xHis-tagged YbfA (pET28a), ybfA gene cloned from E. coli W3110", "T1 sequence (P0AAU2 22-68)": "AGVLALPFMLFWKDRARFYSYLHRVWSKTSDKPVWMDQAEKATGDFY", "assay": "isothermal titration calorimetry (ITC), […] °C", "format": "binding"}
{"smiles": "OCCc1ccc(O)cc1", "note": "[tyrosol]", "values": [{"measurement": "Kd", "result": "4.65 ± 0.11", "unit": "µM"}]}
